Source: US20070118999A1, “Compositions suitable for the treatment of hair comprising chelants and methods for reducing oxidative hair damage” (The Procter & Gamble Company, priority 2001, published 2007)
Values belong to the compound of their own block, whether it stands above or below them.

Columns and labels:
[1] = 1:1 complexes, fully deprotonated chelants; 25deg, 0.1M ionic strength; cited from earlier work
[2] = 1:1 complexes, fully deprotonated chelants; 25deg, 0.1M ionic strength; cited from earlier work; remark: listed apart in the source
[3] = 5-Cycle Oxidative Hair Treatment Protocol with FT-IR Damage Assessing Protocol; parameters: species or system human; conditions: for Damage after 5 cycles (cysteic acid units) / Damage benefit vs EDTA 2%: 5 bleaching cycles, pH 10, 1.9% EDDS, 2.0% HEDP, 2.65% DTPA, 3.8% DTPMP; for Damage after 5 cycles (cysteic acid units): 2% EDTA, sodium salts used; for oxidative hair damage prevention (in words): real conditions of use: pH 10, non-deionized water with Cu^2+ and Ca^2+
Experimental: A bleaching composition comprising the chelant to be tested is prepared by mixing in equal weight amounts a hydrogen peroxide emulsion base and an alkaline (high pH) emulsion base. The hydrogen peroxide emulsion base contains: […] 2 g of the bleaching composition per g of hair to be treated was applied on the hair switches and massaged in thoroughly. The hair switches were then wrapped in a plastic film and put in an oven at 30° C. […] The excess water was then squeezed out of the hair, and the hair dried with a fan. […] Prell® shampoo was using during these tests. This Oxidative Hair Treatment Protocol can be repeated several times. When damage is measured according to the FT-IR Damage Assessing Protocol (described below) the Oxidative Hair Treatment Protocol is preferably repeated 5 times and this process is described as a 5-Cycle Oxidative Hair Treatment Protocol. Damage caused to the hair was assessed by the FT-IR (Fourier Transform Infrared) method, which has been established to be suitable for studying the effects of oxidative treatments on hair (Strassburger, J., J. Soc. Cosmet. Chem., 36, 61-74 (1985); Joy, M. & Lewis, D. M., Int. J. Cosmet. Sci., 13, 249-261 (1991); Signori, V. & Lewis, D. M., Int. J. Cosmet. Sci., 19, 1-13 (1997)). In particular, these authors have shown that the method is suitable for quantifying the amount of cysteic acid that is produced from the oxidation of cystine. In general, the oxidation of cystine is thought to be a suitable marker by which to monitor the overall oxidation of the keratinous part of the fiber. Signori & Lewis (D. M., Int. J. Cosmet. […] They have shown that this technique is more suitable than using the FT-IR method in simple transmission or microscope modes. […] The detailed description of the method used for testing the different damage inhibitors follows thereafter: […] In this method, hair switches of various sizes and colours can be used. The switches were […] per cm) in order to minimize variations in surface area of contact between readings. The Oxidative Hair Treatment Protocol described above was repeated for 5 cycles to mimic the behavior of hair after repeated bleaching cycles. Following this treatment, four readings per switch were taken ( 1/3 and 2/3s down the switch on both sides), and an average calculated. Backgrounds were collected every 4 readings, and an ATR cell pressure of IN/m was employed. The cell was cleaned with ethanol between each reading, and a contamination check performed using the monitor ratio mode of the instrument. As prescribed by Signori & Lewis in 1997, a normalized double derivative analysis routine was used. […] This normalized absorbance was then twice derivatised using a 13 point averaging. […] The following instrumental conditions were employed: […] The corresponding weight percentage is indicated in the first line of the table below. The tri-sodium salt of EDDS, tetra-sodium salt of EDTA, di-sodium salt of HEDP, penta-sodium salt of DTPA and tetra-sodium salt of DTPMP were used. EDTA and DTPA are commonly used in hair care compositions. HEDP was cited in U.S. Pat. […] DPTMP is another phosphonate chelant. […] Damage and lightening effects were assessed after 5 cycles according to the test method described above (“Oxidative hair treatment protocol”). Human hair is often bleached or dyed 5 times or more during its life, which makes this 5 cycle test very meaningful.

[4] = log Conditional Stability Constant at pH 10 with Cu; format: physicochemical
From the text: The Conditional Stability Constant is a parameter commonly used in the art to practically assess the stability of metal-chelant complex at a given pH.

[5] = Hydrogen Peroxide Decomposition Ratio Measurement Protocol
Experimental: The Hydrogen Peroxide Decomposition Ratio Measurement Protocol is defined as follows: 6.0% by weight of concentrated ammonium hydroxide (30% active ammonia) is added to deionised water and the pH of the solution is adjusted to 10 using acetic acid. 300 ppm of copper sulphate and 0.026M of the chelant to be tested are added to said composition. […] The initial level of hydrogen peroxide is measured at this moment (t=0); the final level of hydrogen peroxide is measured after 30 minutes. The value of the ratio of the hydrogen peroxide concentration at t=0 and at t=30 mn is the Hydrogen Peroxide Decomposition Ratio (% Loss).
The initial and final level of hydrogen peroxide can be measured according to any standard technique. The following is a well-known and standard technique that was used by the inventors: 0.2-0.3 g (the exact quantity being precisely measured) of the solution to be titrated is added to 40 ml of 10% acetic acid. […] The level of hydrogen peroxide (% Peroxide) is then calculated from the following equation: [formula]
Three replicate runs are made at both t=0 and t=30 mn and then averaged to calculate the Hydrogen Peroxide Decomposition Ratio (% Loss).

Compound: O=C(O)CC(NCCNC(CC(=O)O)C(=O)O)C(=O)O (stereo not drawn) [EDDS, ethylenediamine-N,N′-disuccinic acid]
log K Cu [1]: 18.35
log K Ca [2]: 4.58
Damage after 5 cycles (cysteic acid units) [3]: 110 cysteic acid units
Damage benefit vs EDTA 2% [3]: +33%
oxidative hair damage prevention (in words) [3]: much less damage than hair treated with any other chelant
Ratio Cu/Ca (log KCuL/log KCaL) [4]: 3.76
Hydrogen Peroxide Decomposition Ratio (% Loss) ([5]; pH 10, 300 ppm copper sulphate, 0.026M chelant, 30 minutes): 1.5%

Compound: O=C(O)CN(CCN(CC(=O)O)CC(=O)O)CC(=O)O [EDTA, ethylenediaminetetraacetic acid]
log K Cu [1]: 18.78
log K Ca [2]: 10.65
oxidative hair damage prevention (in words) [3]: very poor damage prevention properties
capacity at inhibiting the red-ox chemistry of copper (in words) [5]: very good capacity at inhibiting the red-ox chemistry of copper

Compound: O=P(O)(O)CN(CCN(CP(=O)(O)O)CP(=O)(O)O)CCN(CP(=O)(O)O)CP(=O)(O)O [DTPMP, diethylenetriamine-N,N,N′,N″,N″-penta(methylene phosphonate)]
log K Cu [1]: 19.5
log K Ca [2]: 7.1
Damage benefit vs EDTA 2% [3]: +14%

Continued, in another order:

Ratio Cu/Ca (log KCuL/log KCaL) [4]: 1.85
log Conditional Stability Constant (pH 10) Cu [4]: 18.78
Compound: diethylenetriaminepentaacetate [DTPA]
log K Cu [1]: 21.4
log K Ca [2]: 10.75
Damage after 5 cycles (cysteic acid units) [3]: 147 cysteic acid units
Damage benefit vs EDTA 2% [3]: +11%

Ratio Cu/Ca (log KCuL/log KCaL) [4]: 1.75
Compound: CC(O)(P(=O)(O)O)P(=O)(O)O [HEDP, 1-hydroxyethane-1,1-diphosphonic acid]
log K Cu [1]: 11.84
log K Ca [2]: 6.0
Damage benefit vs EDTA 2% [3]: +1%
